# Laboratory results: patent US8592161B2, “Mutational profiles in HIV-1 protease correlated with phenotypic drug resistance” (Janssen R&D Ireland, priority 2002, dated 2013)
# Read-outs that look alike come from different tables or passages of the source.
# How the values were obtained:
# Format in all cases: cell-based
# [1] = system: HIV-1/LAI strain selected with Compound 1 (100 nM, 188 days), protease R41T K70E; assay: In vitro antiviral activity in acutely infected MT4 cells, selected strain; details: for EC50: Human immunodeficiency virus 1, Table 1, strain R41T K70E (Compound 1 100 nM, 188 days), read-out: median EC50; for median FC (fold change in EC50 as compared to wild type): Table 1, strain R41T K70E (Compound 1 100 nM, 188 days)
# Protocol: (§1) Determination of the antiviral activity of a compound was done as described in Pauwels R. et al. (J Virol Methods 1988; 20(4):309-21). Various concentrations of the test compounds were brought into each well of a flat-bottom microtiter plate. Subsequently, HIV and MT4 cells were added to a final concentration of 200-250 50% cell culture infectious doses (CCID50)/well and 30,000 cells/well, respectively. After 5 days of incubation (37° C., 5% CO2), the cytopathic effect of the replicating virus was determined by the tetrazolium colorimetric MTT method. The dose protecting 50% of the cells from virus cytopathic effect was defined as the EC50, while the dose achieving 90% protection was defined as the EC90.
# (§2) MT4-LTR-EGFP cells were infected at a multiplicity of infection (MOI) of 0.01 to 0.001 CCID50/cell in the presence of inhibitor. The starting concentration of the inhibitor was two to tee times the EC50, a suboptimal concentration. The cultures were sub-cultivated and scored microscopically on virus-induced fluorescence and cytopathicity every 3-4 days. The cultures were sub-cultivated in the presence of the same compound concentration until signs of virus replication were observed. The escaping virus was further cultivated in the presence of the same inhibitor concentration in order to enrich the population in resistant variants. If full virus breakthrough was observed the supernatant was collected and stored (new virus strain). Afterwards, the same virus was challenged with a higher compound concentration in order to select variants able to grow in the presence of as high as possible inhibitor concentrations. From the new viruses, a virus stock was grown in the absence of inhibitor.
# (§3) In vitro drug selection experiments starting from wild-type HIV-1 under pressure of compound 1, compound 2, and Nelfinavir (NFV) have been performed. Tables 1, 2, 3, 4, and 5 show the genotypic and phenotypic characterization of the selected strains.
# [2] = system: HIV-1/LAI strain selected with NFV (9000 nM, 140 days), protease L10F D30N R41R/K K45I/K M46I V77I I84V N88D; assay: as above; details: for EC50: Human immunodeficiency virus 1, Table 5, strain L10F D30N R41R/K K45I/K M46I V77I I84V N88D (NFV 9000 nM, 140 days), read-out: median EC50; for median FC (fold change in EC50 as compared to wild type): Table 5, strain L10F D30N R41R/K K45I/K M46I V77I I84V N88D (NFV 9000 nM, 140 days)
# Protocol: as §1, §2, §3
# [3] = system: HIV-1/LAI strain selected with Compound 1 (30 nM, 45 days), protease R41T; assay: as above; details: for EC50: Human immunodeficiency virus 1, Table 1, strain R41T (Compound 1 30 nM, 45 days), read-out: median EC50; for median FC (fold change in EC50 as compared to wild type): Table 1, strain R41T (Compound 1 30 nM, 45 days)
# Protocol: as §1, §2, §3
# [4] = system: HIV-1 strain selected with Comp 1 (40 nM, 175 days), protease R41G V82I; assay: as above; details: for EC50: Human immunodeficiency virus 1, Table 4, strain R41G V82I (Comp 1 40 nM, 175 days), read-out: median EC50; for median FC (fold change in EC50 as compared to wild type): Table 4, strain R41G V82I (Comp 1 40 nM, 175 days)
# Protocol: as §1, §2, §3
# [5] = system: HIV-1/LAI strain selected with NFV (9000 nM, 11l days), protease L10F D30N R41R/K K45I/K M46I V77I I84V/I I85V/I N88D; assay: as above; details: for EC50: Human immunodeficiency virus 1, Table 5, strain L10F D30N R41R/K K45I/K M46I V77I I84V/I I85V/I N88D (NFV 9000 nM, 11l days), read-out: median EC50; for median FC (fold change in EC50 as compared to wild type): Table 5, strain L10F D30N R41R/K K45I/K M46I V77I I84V/I I85V/I N88D (NFV 9000 nM, 11l days)
# Protocol: as §1, §2, §3
# [6] = system: HIV-1 strain selected with Comp 1 (40 nM, 161 days), protease R41G V82I; assay: as above; details: for EC50: Human immunodeficiency virus 1, Table 4, strain R41G V82I (Comp 1 40 nM, 161 days), read-out: median EC50; for median FC (fold change in EC50 as compared to wild type): Table 4, strain R41G V82I (Comp 1 40 nM, 161 days)
# Protocol: as §1, §2, §3
# [7] = system: HIV-1/LAI strain selected with Comp 1 (100 nM, 195 days), protease S37N R41S K70E; assay: as above; details: for EC50: Human immunodeficiency virus 1, Table 2, strain S37N R41S K70E (Comp 1 100 nM, 195 days), read-out: median EC50; for median FC (fold change in EC50 as compared to wild type): Table 2, strain S37N R41S K70E (Comp 1 100 nM, 195 days)
# Protocol: as §1, §2, §3
# [8] = system: HIV-1 starting strain of Table 4 (no compound, no mutations); assay: In vitro antiviral activity in acutely infected MT4 cells, starting strain; details: for EC50: Human immunodeficiency virus 1, starting strain HIV-1, no compound, read-out: median EC50; for median FC (fold change in EC50 as compared to wild type): starting strain HIV-1, no compound
# Protocol: as §1, §2, §3
# HIV-1/LAI = assay: In vitro antiviral activity in acutely infected MT4 cells, wild type; details: read-out: median EC50
# Protocol: as §1, §2, §3
# [9] = system: HIV-1/LAI strain selected with Compound 1 (100 nM, 97 days), protease R41T K70E; assay: In vitro antiviral activity in acutely infected MT4 cells, selected strain; details: for EC50: Human immunodeficiency virus 1, Table 1, strain R41T K70E (Compound 1 100 nM, 97 days), read-out: median EC50; for median FC (fold change in EC50 as compared to wild type): Table 1, strain R41T K70E (Compound 1 100 nM, 97 days)
# Protocol: as §1
# as §2, with “The cultures were sub-cultivated in the presence of the same compound concentration until signs of virus replication were observed.” left out, “Afterwards, the same virus was challenged with a higher compound concentration in order to select variants able to grow in the presence of as high as possible inhibitor concentrations.” left out
# [10] = system: HIV-1/LAI strain selected with Compound 2 (100 nM), protease R41I; assay: as above; details: Human immunodeficiency virus 1, Table 3, R41I strain selected with Compound 2 100 nM (head lists 116, 200, 264 days; assignment unclear), read-out: median EC50
# Protocol: as §1
# as §2, with “The cultures were sub-cultivated in the presence of the same compound concentration until signs of virus replication were observed.” left out, “Afterwards, the same virus was challenged with a higher compound concentration in order to select variants able to grow in the presence of as high as possible inhibitor concentrations.” left out
# [11] = system: HIV-1/LAI strain selected with Compound 2 (100 nM), protease R41I; Table 3; assay: as above; details: Human immunodeficiency virus 1, R41I strain selected with Compound 2 100 nM (head lists 116, 200, 264 days; assignment unclear), read-out: median EC50
# Protocol: as §1, §2, §3
# [12] = Human immunodeficiency virus 1, MT4, Table 1, wild-type HIV/LAI
# [13] = Human immunodeficiency virus 1, MT4, Table 2, wild-type HIV-1/LAI
# [14] = Human immunodeficiency virus 1, MT4, Table 3, wild-type HIV-1/LAI
# [15] = Human immunodeficiency virus 1, MT4, Table 4, wild-type HIV-1/LAI
# [16] = Human immunodeficiency virus 1, MT4, Table 5, wild-type HIV-1/LAI
Structure (SMILES),EC50 [1],median FC (fold change in EC50 as compared to wild type) [1],EC50 [2],median FC (fold change in EC50 as compared to wild type) [2],EC50 [3],median FC (fold change in EC50 as compared to wild type) [3],EC50 [4],median FC (fold change in EC50 as compared to wild type) [4],EC50 [5],median FC (fold change in EC50 as compared to wild type) [5],EC50 [6],median FC (fold change in EC50 as compared to wild type) [6],EC50 [7],median FC (fold change in EC50 as compared to wild type) [7],EC50 [8],median FC (fold change in EC50 as compared to wild type) [8],EC50 (HIV-1/LAI; [12]),EC50 (HIV-1/LAI; [13]),EC50 (HIV-1/LAI; [14]),EC50 (HIV-1/LAI; [15]),further results
CC(C)(C)NC(=O)[C@@H]1C[C@@H]2CCCC[C@@H]2CN1C[C@@H](O)[C@H](Cc1ccccc1)NC(=O)[C@H](CC(N)=O)NC(=O)c1ccc2ccccc2n1 [Saquinavir],150 nM,20,34 nM,6,30 nM,4,0.8 nM,0,15 nM,3,1 nM,0,0.9 nM,0.2,8.9 nM,2,7.8 nM,5.6 nM,5.6 nM,5.6 nM,EC50 (HIV-1/LAI; [16]): 5.6 nM; EC50 [9]: 35 nM; median FC (fold change in EC50 as compared to wild type) [9]: 4; EC50 [10]: 45 nM
CC(C)(C)NC(=O)[C@@H]1CN(Cc2cccnc2)CCN1C[C@@H](O)C[C@@H](Cc1ccccc1)C(=O)N[C@H]1c2ccccc2C[C@H]1O [Indinavir],140 nM,5,28 nM,2,33 nM,1,3.9 nM,0,100 nM,8,2.1 nM,0,9.1 nM,1,2.4 nM,0,28 nM,12 nM,12 nM,12 nM,EC50 [11]: 19 nM; EC50 (HIV-1/LAI; [16]): 12 nM; EC50 [9]: 98 nM; median FC (fold change in EC50 as compared to wild type) [9]: 4; EC50 [10]: 47 nM
Cc1c(O)cccc1C(=O)N[C@@H](CSc1ccccc1)[C@H](O)CN1C[C@H]2CCCC[C@H]2C[C@H]1C(=O)NC(C)(C)C [Nelfinavir],37 nM,1,6800 nM,200,32 nM,1,16 nM,0,7200 nM,200,11 nM,0,9.5 nM,0.3,31 nM,1,30 nM,38 nM,38 nM,38 nM,EC50 [11]: 16 nM; EC50 (HIV-1/LAI; [16]): 38 nM; EC50 [9]: 18 nM; median FC (fold change in EC50 as compared to wild type) [9]: 1; EC50 [10]: 14 nM
CC(C)CN(C[C@@H](O)[C@H](Cc1ccccc1)NC(=O)O[C@H]1CCOC1)S(=O)(=O)c1ccc(N)cc1 [Amprenavir],39 nM,1,190 nM,10,38 nM,1,9.4 nM,0,95 nM,5,6.6 nM,0,14 nM,1,26 nM,1,36 nM,20 nM,20 nM,20 nM,EC50 [11]: 14 nM; EC50 (HIV-1/LAI; [16]): 20 nM; EC50 [9]: 29 nM; median FC (fold change in EC50 as compared to wild type) [9]: 1; EC50 [10]: 8.4 nM
